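Test compounds were applied to cells in 96-well plates for 48 hours at 5 doses. GI50 is the concentration that inhibits growth by half. TGI denotes the concentration required for complete inhibition of growth.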
Key:
Assay in all cases: NCI-60 cell line screen, 48 h
EKVX NSCLC = system: EKVX NSCLC
DMS 114 small cell lung = system: DMS 114 small cell lung
SF-539 CNS = system: SF-539 CNS
CCRF-CEM leukemia = system: CCRF-CEM leukemia
SNB-78 CNS = system: SNB-78 CNS
DLD-1 colon = system: DLD-1 colon
HS 578T breast = system: HS 578T breast
T-47D breast = system: T-47D breast
786-0 renal = system: 786-0 renal
BT-549 breast = system: BT-549 breast
SR leukemia = system: SR leukemia
MDA-N = system: MDA-N

SMILES | TGI (EKVX NSCLC) [µM] | TGI (DMS 114 small cell lung) [µM] | TGI (SF-539 CNS) [µM] | TGI (CCRF-CEM leukemia) [µM] | TGI (SNB-78 CNS) [µM] | TGI (DLD-1 colon) [µM] | TGI (HS 578T breast) [µM] | TGI (T-47D breast) [µM] | TGI (786-0 renal) [µM] | TGI (BT-549 breast) [µM] | TGI (SR leukemia) [µM] | TGI (MDA-N) [µM] | GI50 (EKVX NSCLC) [µM] | GI50 (HS 578T breast) [µM] | GI50 (SF-539 CNS) [µM] | GI50 (CCRF-CEM leukemia) [µM] | GI50 (BT-549 breast) [µM] | GI50 (T-47D breast) [µM] | GI50 (SR leukemia) [µM] | GI50 (MDA-N) [µM]
Cc1c2ccnc(-c3ccccc3)c2cc2c1[nH]c1ccccc12 | 12.5 | 4.82 | 7 | 10.6 | 30.4 | 16.1 |  |  |  |  |  |  |  |  |  |  |  |  |  | 
O=C(CSCC(=O)N/N=C/c1cccc(OCc2ccccc2)c1)N/N=C/c1cccc(OCc2ccccc2)c1 | > 100 |  | > 100 | > 100 |  |  | > 100 | > 100 | > 100 | > 100 |  |  |  |  |  |  |  |  |  | 
O=C(O)c1ccccn1 | > 100 |  | > 100 | > 100 |  |  | > 100 | > 100 | > 100 | > 100 | > 100 | > 100 |  |  |  |  |  |  |  | 
CCOC(=O)c1c2c(c(O)c3ccccc3c(O)n(-c3ccc(C)cc3)c1C)C(=O)C=CC2=O | 85.5 |  | 53.9 | 78.9 |  |  | 66 | 39.4 | 33.5 | 71.2 |  |  |  |  |  |  |  |  |  | 
COc1ccc(-n2c3c(c4cc(O)ccc42)C(=O)c2ccccc2C3=O)cc1 | 43 |  | 11.5 |  |  |  | > 100 | > 100 | 11.5 | 31.5 | 56.9 | > 100 |  |  |  |  |  |  |  | 
NCS(=O)(=O)O | > 100 |  | 52.6 | > 100 |  |  | > 100 | > 100 | > 100 | > 100 |  | > 100 |  |  |  |  |  |  |  | 
COc1cc2c(cc1OC)C(Cl)C(c1ccc(Cl)cc1)=C2Cl (stereo unspecified) | 59.7 | 28.6 | 31.2 | 30.6 | 58.5 | 37.8 |  |  |  |  |  |  |  |  |  |  |  |  |  | 
C[C@@H]1CC[C@H]2C(COC/C=C/COCC3=C(C(F)(F)F)O[C@@H]4O[C@@]5(C)CC[C@H]6[C@H](C)CC[C@@H]3[C@@]46OO5)=C(C(F)(F)F)O[C@@H]3O[C@@]4(C)CC[C@@H]1[C@]32OO4 | > 100 |  | > 21.4 | > 38.4 |  |  | > 100 | > 100 | > 100 | > 100 |  |  | 0.072 | 0.0429 | < 0.0242 | 0.0148 | 0.0644 |  |  | 
O=C(CC1(O)C(=O)Nc2ccc(Br)cc21)c1ccc(C(=O)NCC2CCC3(CC2)OOC2(CCCCC2)OO3)cc1 (stereo unspecified) |  |  | 17.6 |  |  |  | > 100 | 24.4 |  | 32.7 |  |  |  | 9.26 | 3.9 |  | 7.28 | 2.69 |  | 
CN(C)c1ccc2nc3c(C(=O)O)cc(=O)c(O)c-3oc2c1 | 81 |  | 69.3 | 57.8 |  |  | > 100 | 47.4 | 82.7 | 42.8 | 50.1 | 55.5 |  |  |  |  |  |  |  | 
COc1ccc(CNc2nc(NCc3ccc(OC)cc3)nc(NC(C)C)n2)cc1 | 93.2 |  | 27.3 |  |  |  | > 100 | > 100 | 32.9 |  | > 100 | 10.3 |  |  |  |  |  |  |  | 
CN(C)c1ccc(C2CC(=O)C(C#N)=C(c3ccccc3)NN2C)cc1 (stereo unspecified) |  | > 100 |  |  | > 100 | > 100 |  |  |  |  | > 100 |  |  |  |  |  |  |  |  | 
COc1cccc(-c2cccc(SC)n2)n1 | 97.3 |  | > 100 | 41.5 |  |  |  | 75.1 | 88.3 | > 100 | 55.5 | > 100 |  |  |  |  |  |  |  | 
CCOC(=O)C1=C(C)N(C)C(=S)NC1c1cccc(O)c1 (stereo unspecified) | 93.6 |  | > 100 | 72.1 |  |  | > 100 | > 100 | > 100 | 87.9 | 57.3 | 33 |  |  |  |  |  |  |  | 
CC[C@H](Nc1nc(N)nc(N)c1Cl)c1nc2cccc(NCc3ccc(C(=O)NO)cc3)c2c(=O)n1-c1ccccc1 | 3.78 |  | 3.06 | > 100 |  |  | 10.9 | 10.7 |  | 5.69 | > 100 |  | 1.75 | 2.62 | 1.64 | 1.35 | 2.13 | 2.15 | 0.579 | 
CCN(CC)Cc1ccc2cccnc2c1O | > 100 |  | 20.7 | 13.3 |  |  | > 100 |  |  | > 100 | > 100 | 49.7 |  |  |  |  |  |  |  | 
Cc1ccc(C)c(/C(=N\N=C(N)N)C2CC2)c1 | > 100 |  | 75 |  |  |  | > 100 | > 100 | > 100 | 95.3 | > 100 | 59.8 |  |  |  |  |  |  |  | 
Oc1cc(O)cc(/C=C/c2ccc(O)c(O)c2)c1 | > 100 | 22.1 | 22.9 | 24.3 | 76.5 | > 31.6 |  |  |  |  |  |  |  |  |  |  |  |  |  | 
CC(C)CNc1nc(N)[nH]c(=O)c1NC=O | > 100 |  | > 100 | > 100 |  |  | > 100 | > 100 | > 100 | > 100 |  | > 100 |  |  |  |  |  |  |  | 
c1ccc([C@@H]2N[C@@]3(CO[Si](c4ccccc4)(c4ccccc4)c4ccccc4)CC[C@H]4CN[C@@H]2[C@H]43)cc1 | 29.5 |  | 28.6 | > 100 |  |  | 36.3 | 16.7 | 25.9 | 35.3 | > 100 | 13.1 |  |  |  |  |  |  |  | 
O=C1c2ccccc2C(=O)c2c(NCCNC(=O)C3CCCN3)ccc(NCCNC(=O)C3CCCN3)c21 (stereo unspecified) | > 100 |  | > 100 | > 100 |  |  | > 100 | > 100 | 2.09 | > 100 | 66.8 | > 100 |  |  |  |  |  |  |  | 
Cc1ncc(CO)c(CN)c1O | > 100 |  | > 100 | > 100 |  |  | > 100 | > 100 | > 100 | > 100 |  | > 100 |  |  |  |  |  |  |  | 
COc1cc2c(cc1OC)C1C(O)C(OC)C=C3CC[N+](C)(C2)C31 (stereo unspecified) | > 100 |  | > 100 | > 100 |  |  | > 100 | > 100 | > 100 | > 100 |  | > 100 |  |  |  |  |  |  |  | 
C[C@H]1CCC/C=C/[C@@H]2C[C@H](O)C[C@H]2[C@H](O)[C@@H](S(=O)CCN)CC(=O)O1 (stereo partly specified) | > 100 |  |  |  |  |  | > 100 | 0.544 |  | > 100 |  | 5.5 | 0.0891 | 0.207 | < 0.0176 | 0.0729 | 0.0377 | 0.116 |  | 0.0505
Cn1cnc2c(OCC3CCCCC3)nc(N)nc21 | > 100 |  | > 100 | > 100 |  |  | > 100 |  | > 100 | > 100 |  | > 100 |  |  |  |  |  |  |  | 
CN(C)CCNC(=O)c1cccc2nc3c4ccccc4c4ccccc4c3nc12 | 11 |  | 3.18 | 3.03 | 37.6 | 2.9 |  | 34.1 |  | 6.25 | 13 | 3.06 |  |  |  |  |  |  |  | 
O=C(c1cc(Br)ccc1O)c1cc(Br)ccc1O | 30.3 |  | 38.2 | 44.4 |  |  | > 100 | 29.2 | 30.6 | 33.9 |  | 29.5 |  |  |  |  |  |  |  | 
COc1cc2ccc1-c1cc(ccc1O)CC1c3cc4c(cc3CCN1C)Oc1c(OC)cc3c(c1O4)C(C2)N(C)CC3 (stereo unspecified) | 4.57 | 3.48 | 3.27 | 5.18 | 5.23 | 5.27 |  |  | 3.15 |  | 4 |  |  |  |  |  |  |  |  | 
C=CCNC(=O)/C(Cc1cc(Br)c(OC)c(Br)c1O)=N\O | 25.2 |  | 14.6 |  |  |  | 4.23 |  | 7.28 | 18.3 | > 100 | 1.07 |  |  |  |  |  |  |  | 

Source: PubChem BioAssay (NCI)
